Experimental data from patent US20250275968A1, “INHIBITORS OF TAU PROTEINS” (DEUTSCHES ZENTRUM FÜR NEURODEGENERATIVE ERKRANKUNGEN E.V., priority 2022, published 2025).
Counter-ions that a name gives are not always drawn.

Assays:
[1] = system: HEK293T biosensor cells expressing the human tau repeat domain (RD) harboring the P301L/V337M mutation (TauRD^LM-GFP); assay: HEK biosensor cell tau seeding assay; format: cell-based; settings: for compound concentration up to which total amount of cells remained close to 100% (low toxicity): HEK biosensor cells, relative to vehicle (DMSO)
Protocol: Compound stock solutions were prepared as 10 mM compound in DMSO.
HEK293T biosensor cells expressing the human tau repeat domain (RD) harboring the P301L/V337M mutation and fused to a C-terminal GFP tag (named TauRD^LM-GFP) were engineered to probe Tau seeding in cellula (Reference: Liu, S., Hossinger, A., Heumüller, S E. et al. Highly efficient intercellular spreading of protein misfolding mediated by viral ligand-receptor interactions. Nat Commun 12, 5739 (2021). https://doi.org/10.1038/s41467-021-25855-2). HEK cells expressing the P301L human full-length Tau, C-terminally tagged with GFP were incubated with pre-sonicated hTau40^P301L fibrils to induce Tau aggregate formation. Cells were harvested and the resulting cell lysate was used to seed Tau aggregation in further experiments with HEK TauRD^LM-GFP cells.
In a typical seeded assay, HEK cells were incubated with cell lysate, compounds (0-40 μM) and lipofectamine for 22-48 hours. Negative control experiments in the absence of compounds (only with vehicle DMSO) and in the presence of cell lysate were performed in parallel.
Dose response curves were constructed by quantifying the number of cells with aggregates for each compound concentration. The curves were fitted with a sigmoid function using Graphpad PRISM version 8. The inhibitory concentration at 50% activity (IC50) was determined for each compound.

[2] = system: tau-induced degeneration of Drosophila eyes (GMR-Gal4/WT tau); assay: Drosophila neurodegeneration model (eye degeneration); format: in vivo; settings: GMR-Gal4/WT tau flies treated in food from larvae stage to adult stage
Protocol: Stock solutions of individual compounds were prepared by dissolving 10 mg of the compound in 100 μl of 100% DMSO. Osimertinib, Osimertinib mesylate and AZ7550 mesylate were orally fed to the flies by mixing them with food. The final concentration of each compound, which was used for treating the Drosophila, was derived on the basis of recommended concentrations for human use (reference concentration) based on body weight.
We have used three concentrations for each compound. One was equal to the reference concentration, and two were higher than the reference concentration. Final concentrations of different compounds mixed with fly food are: Osimertinib mesylate, […]; Osimertinib, […]; AZ 7550 mesylate, 10 µM and 20 µM. After hatching, first instar larvae were transferred onto the food containing one of the compounds. Food mixed with drug at required concentration was replaced with fresh food every 48 h.
Light microscopy was performed after mounting the fly heads on the glass slide using a double-sided adhesive tape. Full-eye images were captured with the help of an Infinity Analyze camera attached to an Olympus SZX7 microscope with a halogen light source. Total eye surface area and degenerated eye surface area were marked and calculated with Infinity Analyze software (Lumenera corporation). Percentage of degenerated area was calculated and plotted using GraphPad Prism 8.
After the eclosion, treated and control flies (2-3 days old) were fixed in 1% formaldehyde for two hours, followed by serial dehydration steps of 12 hrs each in 25%, 50%, 75% and 100% ethanol were carried out. Flies were stored in 100% ethanol and dried with CPD before mounting on the stab for imaging. Eye Images were captured at 150× and analyzed using Infinity Analyze software.

2N4R Tau fibrils = molecular target: T1, 2N4R Tau fibrils (Homo sapiens, UniProt P10636); assay: Saturation transfer difference (STD) NMR with tau fibrils; format: binding; settings: 48-fold excess of compound, 100 mM NaCl, 2.5% (v/v) DMSO, pH 6.8, 37° C.
T1 construct: Full-length 2N4R tau was incubated with Osimertinib mesylate
Protocol: 2N4R Tau fibrils were prepared using the aggregation procedure described in the section in vitro assay 1 without Thioflavin T. The mole ratio of “free” compound to fibrils was 48:1 (corresponding to a total compound concentration of 250 μM and a total fibril concentration of 5 μM Tau). The NMR samples were prepared in 50 mM sodium phosphate with 100 mM NaCl and 2.5% (v/v) DMSO at pH 6.8. The spectra were recorded at 37° C. using a Bruker 700 MHz spectrometer equipped with a triple resonance cryoprobe. 1D ^1H-NMR STD spectra were acquired in an interleaved manner, alternating between off-resonance irradiation at 60 ppm and on-resonance irradiation at −2 ppm.

2N4R tau aggregates = molecular target: T2, 2N4R tau aggregates (Homo sapiens, UniProt P10636); assay: Dissolution of preformed 2N4R tau fibrils (ThT fluorescence, TEM); format: biochemical; settings: compounds added to tau fibrils after about 40 h; tau monomer:Compound 1:3 and 1:10
T2 construct: Full-length 2N4R tau was incubated with Osimertinib mesylate
Protocol: (A) ThT fluorescence curves monitoring tau aggregation. tau fibrillization reached a saturation point within about 40 h, then compounds or buffer (Reference) were added to tau fibrils (tau monomer:Compound mole ratios 1:3 and 1:10). The experiment was performed in duplicate. […] Statistically significant differences were determined by one-way ANOVA with Dunnett's multiple comparison test. Significant differences corresponding to p≤0.0002(***) and p≤0.0001(****) are indicated. […] Scale bars are 500 nm. […] The dotted line corresponds to one standard deviation above the Reference value.
(§1) To prepare the Tau fibril seeds by de novo aggregation, 2N4R Tau at a monomer concentration of 25 μM was diluted in aggregation buffer. The working concentration of TCEP in the aggregation mixture was <25 μM after dilution of the stock. To this mixture, Thioflavin T (ThT) was added to a final concentration of 50 μM. A total volume of 100 μL of the Tau-ThT mixture was incubated in a well of a 96-well microplate (Greiner Bio-one), in the presence of two polytetrafluoroethylene beads. The microplate was subjected to a program implemented in a Tecan Spark plate reader that involved incubating at 37° C., with intervals of double orbital shaking and ThT fluorescence emission measurement. The excitation wavelength for ThT was set as 430 nm and the emission wavelength was 485 nm. Details of this plate reader program were published previously (Reference: Chakraborty, P. et al. Co-factor-free aggregation of tau into seeding-competent RNA-sequestering amyloid fibrils. Nat. Commun. 12, 4231 (2021)). […] The fibril-containing mixture collected from the microplate served as a seeding mixture for the subsequent aggregation assays.
Fibril samples were negative stained using glow discharged 400 mesh carbon-coated copper grids. After staining using a 1% uranyl acetate solution, images were acquired on a Talos L120C transmission electron microscope (Thermo Fisher, Eindhoven, The Netherlands).

15N-labeled 2N4R tau = molecular target: T3, 15N-labeled 2N4R tau (Homo sapiens, UniProt P10636); assay: SOFAST-HMQC NMR binding to monomeric tau; settings: 18 μM tau, 50 mM sodium phosphate pH 6.8, 16 h at 37° C., spectra at 5° C.
T3 construct: Full-length 2N4R tau was incubated with Osimertinib mesylate
From the text: (A) Overlaid spectra of 2N4R tau with (black) and without (grey) a 100-fold molar excess of Osimertinib mesylate.
To obtain residue-specific information about the interaction between Tau and the compounds, ^1H-^15N correlation spectra of 2N4R Tau were monitored over the course of a titration with increasing amounts of compound. The ^1H-^15N SOFAST-HMQC (Reference: Schanda, P., Kupce, E. & Brutscher, B. SOFAST-HMQC experiments for recording two-dimensional heteronuclear correlation spectra of proteins within a few seconds. J. Biomol. NMR 33, 199-211 (2005)) spectra of [U-^15N]-Tau were acquired at 5° C. on a Bruker 800 MHz spectrometer equipped with a triple-resonance cryoprobe. Tau samples (18-25 μM) were prepared in NMR buffer containing 10% (v/v) D2O, and with compound concentrations that corresponded to Tau:compound mole ratios of 1:10 and 1:100. All NMR samples were incubated overnight (˜16 h) at 37° C. prior to spectral acquisition. Tau amide assignments were taken from a previous study (Reference: Mukrasch, M. et al. Structural polymorphism of 441-residue tau at single residue resolution. PLoS Biol. 7, e34 (2009)). However, because previous assignments were obtained using a Tau sample prepared in the presence of reducing agents, some amide resonances belonging to the repeat region of Tau (close to C291 and C322) were not unambiguously transferred to the SOFAST-HMQC spectra acquired under oxidizing conditions. Therefore, to obtain nearly complete backbone assignments in the repeat region, 3D HNCA, 3D HNCOCA, and 3D CBCACONH spectra were recorded for a [U-^13C,^15N]-4R Tau (K18 construct) sample prepared under the same buffer condition. The weighted, normalized chemical shift perturbations (CSP) were calculated as CSP=√[0.5 [(Δδ H)^2+(Δδ N)^2/25]. NMR signal intensity ratios, I/I0 (where I is the peak intensity of Tau amide backbone resonances in the presence of the compounds, and I0 is the peak intensity in the absence of the compounds), were calculated for each titration point.

2N4R tau = molecular target: T4, 2N4R tau (Homo sapiens, UniProt P10636); assay: In vitro seeded aggregation/fibrillization assay of 2N4R tau (ThT fluorescence); format: biochemical
T4 construct: Full-length 2N4R tau was incubated with Osimertinib mesylate
Protocol: Aggregation of 2N4R Tau was performed using a previously published co-factor-free aggregation protocol, with a few modifications (Reference: Chakraborty, P. et al. Co-factor-free aggregation of tau into seeding-competent RNA-sequestering amyloid fibrils. Nat. Commun. 12, 4231 (2021)). Aggregation experiments used the Tau protein stock prepared in 25 mM HEPES pH 7.4, 1 mM TCEP. Stocks of compounds were prepared in aggregation buffer (25 mM HEPES, 10 mM KCl, 5 mM MgCl2, pH 7.2) or in DMSO (10 mM compound).
as §1
Seeded aggregation assays were performed as described above but with 1.0% of the well volume occupied by the seeding mixture sonicated for 1 minute. The assays were performed in the presence and absence of compounds, and working concentrations ranged from 0-250 μM compound.
Analyses of the fluorescence curves were performed using Graphpad PRISM version 8. Fluorescence data were fit to a sigmoid function. The number of hours corresponding to half-maximal ThT Fluorescence™ as well as the span of fluorescence intensity (Span) were determined for each sigmoid curve. Statistically significant differences were determined by one-way ANOVA analysis with Dunnett's multiple comparison test or unpaired t-test.

tau(244-372, 13818 Da) = molecular target: T5, tau(244-372, 13818 Da) (Homo sapiens, UniProt P10636); assay: ESI-MS covalent modification of tau; format: binding
T5 construct: comprising residues 244-372 of 2N4R Tau
Protocol: This analysis was performed using the 4R Tau construct (K18 construct, 13818 Da) comprising residues 244-372 of 2N4R Tau. Compounds (330 μM) were incubated with 4R Tau (65 μM) for 16 h at 37° C. in 10 mM ammonium bicarbonate at pH 7.0. The compound/4R Tau mixtures were injected into an LC system (ACQUITY) coupled to a single quadrupole mass detection system (SQ Detector 2, Waters) with diode-array detectors (DAD). The DAD spectrum covers wavelengths of 210-400 nm. Components of the compound-4R Tau mixture were separated using a BioResolve RP mAb column (Waters) with a gradient of 5-95% buffer B (buffer A is 0.1% TFA in water and buffer B is 0.1% TFA in acetonitrile). Covalent modification of 4R Tau corresponded to mass additions of 500 Da (Osimertinib) and 486 Da (AZ7550 or AZ5104).

T4 sequence (P10636 1-441 isoform P10636-8): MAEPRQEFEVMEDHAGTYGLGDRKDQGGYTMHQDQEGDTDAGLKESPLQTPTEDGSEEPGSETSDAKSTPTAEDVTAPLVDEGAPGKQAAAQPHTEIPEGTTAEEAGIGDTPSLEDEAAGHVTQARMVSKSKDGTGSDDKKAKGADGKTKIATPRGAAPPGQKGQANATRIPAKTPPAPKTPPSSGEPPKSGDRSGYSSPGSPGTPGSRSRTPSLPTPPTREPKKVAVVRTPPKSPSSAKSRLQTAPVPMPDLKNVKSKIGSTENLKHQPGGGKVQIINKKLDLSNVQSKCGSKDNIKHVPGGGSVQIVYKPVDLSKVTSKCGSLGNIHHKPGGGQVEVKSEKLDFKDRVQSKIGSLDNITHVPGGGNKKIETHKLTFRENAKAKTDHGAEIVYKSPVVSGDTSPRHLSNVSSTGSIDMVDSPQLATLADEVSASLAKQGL
T5 sequence (P10636 561-689): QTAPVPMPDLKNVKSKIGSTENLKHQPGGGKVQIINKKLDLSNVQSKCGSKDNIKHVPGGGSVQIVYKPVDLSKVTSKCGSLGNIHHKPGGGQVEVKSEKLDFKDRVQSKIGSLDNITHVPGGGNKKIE
T1 sequence (P10636 1-441 isoform P10636-8): as the sequence (P10636 1-441 isoform P10636-8) above
T3 sequence (P10636 1-441 isoform P10636-8): as above
T2 sequence (P10636 1-441 isoform P10636-8): as above

Structure (SMILES): O=C(O[C@@H]1Cc2c(O)cc(O)cc2O[C@@H]1c1cc(O)c(O)c(O)c1)c1cc(O)c(O)c(O)c1 [EGCG]
- inhibitory activity toward the aggregation of tau in HEK biosensor cells (number of cells with aggregates relative to DMSO) ([1]; control compounds compared with Osimertinib, compound 2 and compound 3): much lower inhibitory activity

Structure (SMILES): C=CC(=O)Nc1cc(Nc2nccc(-c3cn(C)c4ccccc34)n2)c(OC)cc1N(C)CCNC [AZ7550 mesylate, N-[4-methoxy-5-[[4-(1-methyl-1H-indol-3-yl)-2-pyrimidinyl]amino]-2-[methyl[2-(methylamino)ethyl]amino]phenyl]-2-Propenamide]
- tau-induced degeneration of Drosophila eyes (percent degeneration, light microscopy) [2]: rescue tau-induced degeneration of Drosophila eyes

Structure (SMILES): C=CC(=O)Nc1cc(Nc2nccc(-c3cn(C)c4ccccc34)n2)c(OC)cc1N(C)CCNC [AZ7550 hydrochloride, N-[4-methoxy-5-[4-(1-methyl-1H-indol-3-yl)-2-pyrimidinyl]amino]-2-[methyl[2-(methylamino)ethyl]amino]phenyl]-2-Propenamide hydrochloride]
- STD effect with tau fibrils (fibril binding epitopes) (2N4R Tau fibrils): Protons showing STD effects
- dissolution of 2N4R tau aggregates (reduction of ThT fluorescence intensity) (2N4R tau aggregates): partially dissolve
- compound concentration up to which total amount of cells remained close to 100% (low toxicity) [1]: about 5.0 μM
- binding to tau (NMR spectroscopy) (15N-labeled 2N4R tau): reveals binding

Structure (SMILES): C=CC(=O)Nc1cc(COc2cc(-c3cn(C)c4ccccc34)ccn2)ccc1N1CCCC1 [Compound 31]
- efficacy of aggregation delay compared to Compound 1 (2N4R tau; 1:3 Tau:compound mole ratio, 2.5% (v/v) DMSO): notably more efficacious
- normalized Tm, extent of aggregation delay (2N4R tau; 1:3 Tau:compound mole ratio, 2.5% (v/v) DMSO, at least 3 replicates): significant delay of aggregation

Structure (SMILES): C=CC(=O)Nc1cc(Nc2cc(-c3cn(C)c4ccccc34)nc(OC)n2)c(OC)cc1N(C)CCN(C)C [Compound 9]
- compound concentration up to which total amount of cells remained close to 100% (low toxicity) [1]: about 4.0 μM

Structure (SMILES): C=CC(=O)Nc1cc(Nc2nccc(-c3cn(C)c4ccccc34)n2)c(OC)cc1N(C)CCNC [Compound 2]
- In vitro seeded aggregation/fibrillization of full-length tau (ThT fluorescence curves) (2N4R tau; 2N4R tau, various formulations): inhibited in a dose-dependent manner
- covalent modification of cysteines in tau (ESI-MS) (tau(244-372, 13818 Da)): confirms covalent modification of cysteines
